Results reported in paper PMC10434152, “Effectors of the Type VI Secretion System Have the Potential to Be Modified into Antimicrobial Peptides” (Microbiology Spectrum, 2023).
Like-named read-outs stand apart in the source and are kept apart here. Residues, ends and D or L forms follow the SMILES beside them.

Key:
E. coli ATCC 25922 = experiment: MIC and MBC against laboratory strain E. coli ATCC 25922; type: cell-based, Escherichia coli; settings: for MBC: 10 μL from MIC put into Mueller-Hinton agar medium, 24 h; for MIC: 37°C, 18 to 20 h
Procedure: (§1) MIC was measured according to Luna et al. ([25]) as described previously. Briefly, 100 μL of RPMI 1640 medium containing drugs at various concentrations was cultured with 100 μL of bacteria at 1 × 10^6 CFU/mL in 96-well plates at 37°C for 18 to 20 h. Wells containing 100 μL of bacteria at 1 × 10^6 CFU/mL and 100 μL medium were used as positive controls. Wells containing 100 μL drug and 100 μL medium were used as drug-negative controls, and wells containing 200 μL medium were used as negative controls.
(§2) The MBC, in which a combination of 10 μL from MIC was put into Mueller-Hinton agar medium and incubated for 24 h, was the first one in which […].

S. aureus ATCC 25923 = experiment: MIC and MBC against laboratory strain S. aureus ATCC 25923; type: cell-based, Staphylococcus aureus; settings: for MBC: 10 μL from MIC put into Mueller-Hinton agar medium, 24 h; for MIC: 37°C, 18 to 20 h
Procedure: as §1, §2

S. aureus USA300 = experiment: MIC and MBC against MDR bacteria; type: cell-based; settings: for MBC: Mueller-Hinton agar, 24 h; for MIC: RPMI 1640, 37°C, 18 to 20 h
Procedure: as §1, §2

Streptococcus SC19 = experiment: MIC and MBC against MDR bacteria; type: cell-based; settings: for MBC: Mueller-Hinton agar, 24 h; for MIC: RPMI 1640, 37°C, 18 to 20 h
Procedure: as §1, §2

S. aureus ATCC 43300 = experiment: MIC and MBC against MDR bacteria; type: cell-based; settings: for MBC: Mueller-Hinton agar, 24 h; for MIC: RPMI 1640, 37°C, 18 to 20 h
Procedure: as §1, §2

Bacillus subtilis NCD-2 = experiment: MIC and MBC against MDR bacteria; type: cell-based; settings: for MBC: Mueller-Hinton agar, 24 h; for MIC: RPMI 1640, 37°C, 18 to 20 h
Procedure: as §1, §2

S. aureus USA200 [1] = experiment: MIC and MBC against MDR bacteria; type: cell-based; settings: for MBC: Mueller-Hinton agar, 24 h
Procedure: as §1, §2

S. aureus 1802043 = experiment: MIC and MBC against MDR bacteria; type: cell-based; settings: for MBC: Mueller-Hinton agar, 24 h; for MIC: RPMI 1640, 37°C, 18 to 20 h
Procedure: as §1, §2

S. aureus USA200 [2] = experiment: Checkerboard combination with ciprofloxacin; type: cell-based; settings: in combination with ciprofloxacin
ExPEC RS218 = experiment: MIC and MBC against MDR bacteria; type: cell-based, Escherichia coli; settings: for MBC: Mueller-Hinton agar, 24 h; for MIC: RPMI 1640, 37°C, 18 to 20 h
Procedure: as §1, §2

ExPEC PCN033 = experiment: MIC and MBC against MDR bacteria; type: cell-based, Escherichia coli; settings: for MBC: Mueller-Hinton agar, 24 h; for MIC: RPMI 1640, 37°C, 18 to 20 h
Procedure: as §1, §2

S. aureus USA200 [3] = experiment: Mouse tissue load experiment; type: in vivo; settings: BALB/c mice, five per group, 20 mg/kg i.p., tissues (liver, spleen, lung, kidney) harvested 12 h later, CFU
Procedure: For the mouse tissue load experiment, the bacteria were manipulated as described previously. Twenty female BALB/c mice (18 ± 2 g each) were divided randomly into four groups of five mice each. The animals in the four groups were injected intraperitoneally with 20 mg/kg Tsap-1 AMP, 20 mg/kg ciprofloxacin, 10 mg/kg Tsap-1, and 10 mg/kg ciprofloxacin or an equal amount of PBS. Twelve hours later, the mice were anesthetized with ether and perfused with PBS, and their livers, spleens, lungs, and kidneys were harvested. The tissues were then homogenized using a tissue grinder. Then, 10× serial dilutions of the homogenates were prepared and plated onto LB plates, and the CFUs were counted.

S. aureus USA200 [4] = experiment: S. aureus-infected mouse model, survival; type: in vivo; settings: BALB/c mice, n = 10, 1 × 10^7 bacteria i.p.; 20 mg/kg i.p. 6 h after infection; survival after 7 days
Procedure: To determine the drug protection rate fraction, S. aureus USA200 that had been cultured overnight was cultured in LB broth to an OD600 of 0.5, washed three times, and resuspended in PBS. Forty female BALB/c mice (18 ± 2 g each) were divided randomly into four groups. All four groups (n = 10) of mice were injected intraperitoneally with 1 × 10^7 bacteria. Six hours after infection, the animals in the four groups received 20 mg/kg Tsap-1, 20 mg/kg ciprofloxacin, 10 mg/kg Tsap-1, and 10 mg/kg ciprofloxacin or an equal amount of PBS by intraperitoneal injection. The survival rate of the mice was recorded after 7 days.

Sheep red blood cells = experiment: Hemolytic activity; type: cell-based; settings: 4 μg/mL; 10% SRBCs, 37°C, 6 h, absorbance 540 nm, triplicate
Procedure: Sheep red blood cells (SRBCs) were used to detect hemolytic activity according to a previous method. Briefly, fresh SRBCs were washed with PBS, and a suspension of 10% SRBCs was mixed with solutions of Tsap or melittin at various concentrations. After incubation at 37°C for 6 h, the cells were removed by centrifugation at 800 × g for 10 min, and the absorbance of the supernatant at 540 nm was measured. Culture supernatant from cells that had been stimulated with 1% Triton X-100 was used as a positive control, and culture supernatant from cells that had been incubated with PBS was used as a negative control. Each measurement was taken in triplicate.

[5] = RPMI 1640 medium, 1 × 10^6 CFU/mL, 96-well plates
[6] = RPMI supplemented with Glycine (0.5 mM)
[7] = RPMI supplemented with L-Arginine (0.5 mM)
[8] = RPMI supplemented with L-Histidine (0.5 mM)
[9] = RPMI supplemented with L-Tryptophan (0.125 mM)
[10] = RPMI supplemented with Leucine (1 mM)
[11] = RPMI supplemented with nonessential amino acid solution
[12] = S. aureus USA200, RPMI 1640, 37°C, 18 to 20 h

Compound | MBC (E. coli ATCC 25922) [µg/mL] | MIC (E. coli ATCC 25922; [5]) [µg/mL] | MIC (E. coli ATCC 25922; [6]) [µg/mL] | MIC (E. coli ATCC 25922; [7]) [µg/mL] | MIC (E. coli ATCC 25922; [8]) [µg/mL] | MIC (E. coli ATCC 25922; [9]) [µg/mL] | MIC (E. coli ATCC 25922; [10]) [µg/mL] | MIC (E. coli ATCC 25922; [11]) [µg/mL] | MBC (S. aureus ATCC 25923) [µg/mL] | MIC (S. aureus ATCC 25923; [5]) [µg/mL] | MIC (S. aureus ATCC 25923; [6]) [µg/mL] | MIC (S. aureus ATCC 25923; [7]) [µg/mL] | MIC (S. aureus ATCC 25923; [8]) [µg/mL] | MIC (S. aureus ATCC 25923; [9]) [µg/mL] | MIC (S. aureus ATCC 25923; [10]) [µg/mL] | MIC (S. aureus ATCC 25923; [11]) [µg/mL] | MBC (S. aureus USA300) [µg/mL] | MIC (S. aureus USA300) [µg/mL] | MBC (Streptococcus SC19) [µg/mL] | MIC (Streptococcus SC19) [µg/mL] | further results
CC[C@H](C)[C@H](NC(=O)[C@H](CCSC)NC(=O)[C@H](CCCCN)NC(=O)[C@H](CCCCN)NC(=O)[C@H](CC(C)C)NC(=O)[C@H](CCCCN)NC(=O)[C@H](CCCCN)NC(=O)[C@@H](N)Cc1c[nH]c2ccccc12)C(=O)N[C@@H](CCCCN)C(=O)N[C@@H](CCCCN)C(=O)O [Tsap1] (H-WKKLKKMIKK-OH) | 4 | 32 | 16 | 16 | 32 | 32 | 32 | 16 | 4 | 16 | 16 | 16 | 16 | 16 | 16 | 16 | 2 | 16 | 4 | 16 | MBC (S. aureus ATCC 43300): 4 µg/mL; MIC (S. aureus ATCC 43300): 16 µg/mL; MBC (Bacillus subtilis NCD-2): 4 µg/mL; MIC (Bacillus subtilis NCD-2): 16 µg/mL; MBC (S. aureus USA200 [1]; S. aureus USA200): 8 µg/mL; MIC (S. aureus USA200 [1]; [12]): 64 µg/mL; MBC (S. aureus 1802043): 2 µg/mL; MIC (S. aureus 1802043): 16 µg/mL; fractional inhibitory concentration index (FICI) (S. aureus USA200 [2]): 0.5; MBC (ExPEC RS218): 32 µg/mL; MIC (ExPEC RS218): 64 µg/mL; MBC (ExPEC PCN033): 32 µg/mL; MIC (ExPEC PCN033): 64 µg/mL
CC[C@H](C)[C@H](NC(=O)[C@H](CCSC)NC(=O)[C@H](CCCCN)NC(=O)[C@H](CCCCN)NC(=O)[C@H](CC(C)C)NC(=O)[C@H](C)NC(=O)[C@H](CCCCN)NC(=O)[C@@H](N)Cc1c[nH]c2ccccc12)C(=O)N[C@@H](CCSC)C(=O)N[C@@H](CCCCN)C(=O)N[C@H](C(=O)O)[C@@H](C)O [Tsap2] (H-WKALKKMIMKT-OH) | 32 | 128 | 64 | 64 | 128 | 128 | 128 | 64 | 16 | 64 | 64 | 16 | 64 | 64 | 64 | 64 | 8 | 16 | 8 | 16 | MBC (S. aureus ATCC 43300): 8 µg/mL; MIC (S. aureus ATCC 43300): 16 µg/mL; MBC (Bacillus subtilis NCD-2): 8 µg/mL; MIC (Bacillus subtilis NCD-2): 16 µg/mL; MBC (S. aureus USA200 [1]; S. aureus USA200): 64 µg/mL; MIC (S. aureus USA200 [1]; [12]): 512 µg/mL; MBC (S. aureus 1802043): 8 µg/mL; MIC (S. aureus 1802043): 16 µg/mL; fractional inhibitory concentration index (FICI) (S. aureus USA200 [2]): 1.125; MBC (ExPEC RS218): 64 µg/mL; MIC (ExPEC RS218): 256 µg/mL; MBC (ExPEC PCN033): 64 µg/mL; MIC (ExPEC PCN033): 256 µg/mL
CC[C@H](C)[C@H](NC(=O)[C@H](CCCCN)NC(=O)[C@H](CCSC)NC(=O)[C@@H](NC(=O)[C@H](CCSC)NC(=O)[C@H](CCCCN)NC(=O)[C@H](CCCCN)NC(=O)[C@H](CC(C)C)NC(=O)[C@H](C)NC(=O)[C@H](CCCCN)NC(=O)[C@@H](N)Cc1c[nH]c2ccccc12)[C@@H](C)CC)C(=O)O [Tsap3] (H-WKALKKMIMKI-OH) | 4 | 32 | 16 | 16 | 32 | 32 | 32 | 16 | 8 | 16 | 16 | 16 | 16 | 16 | 16 | 16 | 2 | 16 | 4 | 16 | MBC (S. aureus ATCC 43300): 4 µg/mL; MIC (S. aureus ATCC 43300): 16 µg/mL; MBC (Bacillus subtilis NCD-2): 4 µg/mL; MIC (Bacillus subtilis NCD-2): 16 µg/mL; MBC (S. aureus USA200 [1]; S. aureus USA200): 16 µg/mL; MIC (S. aureus USA200 [1]; [12]): 64 µg/mL; MBC (S. aureus 1802043): 2 µg/mL; MIC (S. aureus 1802043): 16 µg/mL; fractional inhibitory concentration index (FICI) (S. aureus USA200 [2]): 1.25; MBC (ExPEC RS218): 32 µg/mL; MIC (ExPEC RS218): 64 µg/mL; MBC (ExPEC PCN033): 32 µg/mL; MIC (ExPEC PCN033): 64 µg/mL
O=C(O)c1cn(C2CC2)c2cc(N3CCNCC3)c(F)cc2c1=O [ciprofloxacin] |  |  |  |  |  |  |  |  |  |  |  |  |  |  |  |  |  |  |  |  | reduction of bacterial loads in all tissues compared with untreated group (S. aureus USA200 [3]): about 32 times; MIC (S. aureus USA200 [1]; Staphylococcus aureus, S. aureus USA200, stated in text, read-out: MIC): 16 µg/mL; protection (S. aureus USA200 [4]): 60%
melittin |  |  |  |  |  |  |  |  |  |  |  |  |  |  |  |  |  |  |  |  | hemolysis activity (Sheep red blood cells): complete hemolysis activity
